The record followed here is patent US9988359B2, “Herbicidally active benzoic acid amides” (BAYER CROPSCIENCE AKTIENGESELLSCHAFT, priority 2014, dated 2018).

The subject of one test is PHBPU Pharbitis purpureum. The test is described as follows: Post-emergence herbicidal action against harmful plants. The settings on record: dosage 20 g/ha, assessed visually after about 3 weeks, 100% = plants have died. Type of test: in vivo. The method, then:
(§1) AMARE Amaranthus retroflexus PHBPU Pharbitis purpureum Seeds of monocotyledonous and dicotyledonous weed and crop plants are laid out in sandy loam in wood-fiber pots, covered with soil and cultivated in a greenhouse under good growth conditions. 2 to 3 weeks after sowing, the test plants are treated at the one-leaf stage. The compounds of the invention, formulated in the form of wettable powders (WP) or as emulsion concentrates (EC), are then sprayed onto the green parts of the plants in the form of an aqueous suspension or emulsion at a water application rate equating to 600 to 800 l/ha, with addition of 0.2% wetting agent. After the test plants have been left to stand in the greenhouse under optimal growth conditions for about 3 weeks, the action of the preparations is assessed visually in comparison to untreated controls (herbicidal action in percent (%): 100% activity=the plants have died, 0% activity=like control plants).
Turning to `COSc1c(C)ccc(C(=O)Nc2nnc(C)o2)c1C`, the “Activity against PHBPU” value came to 60%.

Take `COSc1c(C)ccc(C(=O)Nc2nnc(C)o2)c1Br`: the “Activity against PHBPU” value is reported as 40%.

Still in this test, the particulars now being: dosage 20 g/ha, visual scoring after about 3 weeks vs untreated controls (100% = plants have died, 0% = like control plants).
With `CSc1c(C)ccc(C(=O)Nc2nnc(C)o2)c1Br`, the “Activity against PHBPU” value was found to be 0%.

Consider `CSc1c(C)ccc(C(=O)Nc2nnc(C)o2)c1C`, for which the “Activity against PHBPU” value is 60%.

On to `CSc1c(Br)ccc(C(=O)Nc2nnc(C)o2)c1C`, for which the “Activity against PHBPU” value was determined as 10%.

The subject of another test is AMARE Amaranthus retroflexus. Described as above. The conditions noted are these: dosage 80 g/ha, assessed visually after about 3 weeks, 100% = plants have died. The test is classed as in vivo. As for the experimental part: as §1
As for `Cc1ccc(C(=O)Nc2ncnn2C)c(Br)c1S(C)(=O)=O`, the “Activity against AMARE” value is recorded as 60%.

Consider `CSc1c(C)ccc(C(=O)Nc2ncnn2C)c1C`, for which the “Activity against AMARE” value came out at 90%.

With `Cc1ccc(C(=O)Nc2ncnn2C)c(Br)c1[S+](C)[O-]` (stereo not shown), the “Activity against AMARE” value was 70%.

As for `Cc1c(C(=O)Nc2ncnn2C)ccc(Cl)c1S(C)(=O)=O`, the “Activity against AMARE” value is reported as 60%.

`Cc1ccc(C(=O)Nc2ncnn2C)c(C)c1[S+](C)[O-]` (stereo not shown): the “Activity against AMARE” value was found to be 90%.

As for `CSc1c(C)ccc(C(=O)Nc2ncnn2C)c1Br`, the “Activity against AMARE” value is recorded as 70%.

As for `Cc1ccc(C(=O)Nc2ncnn2C)c(C)c1S(C)(=O)=O`, the “Activity against AMARE” value worked out at 90%.

As for `Cc1ccc(C(=O)Nc2ncnn2C)c(C)c1`, the “Activity against AMARE” value amounted to 0%.

A further test concerns SETVI Setaria viridis. The description is as above. Type of test: in vivo. The conditions noted are these: dosage 80 g/ha, assessed visually after about 3 weeks, 100% = plants have died. The method, then: as §1, with “SETVI Setaria viridis” for “AMARE Amaranthus retroflexus PHBPU Pharbitis purpureum”
On to `Cc1ccc(C(=O)Nc2nonc2C)c(C)c1S(C)(=O)=O` [drawing 27], for which the “Activity against SETVI” value is listed as 80%.

Consider `CSc1c(C)ccc(C(=O)Nc2nonc2C)c1C`, for which the “Activity against SETVI” value was 0%.

For the compound `Cc1nonc1NC(=O)c1ccc(C(F)(F)F)c(S(C)(=O)=O)c1C`, the “Activity against SETVI” value is given as 40%.

`CSc1c(Cl)ccc(C(=O)Nc2nonc2C)c1C`: the “Activity against SETVI” value came to 0%.

`Cc1nonc1NC(=O)c1ccc(C#N)c(S(C)(=O)=O)c1C`: the “Activity against SETVI” value was 0%.

As for `Cc1ccc(C(=O)Nc2nonc2C)c(C)c1S(C)(=O)=O` [drawing 24], the “Activity against SETVI” value turned out to be 40%.
